From patent publication US9604925B2, “Class II HMG-CoA reductase inhibitors and methods of use” (Purdue Research Foundation, priority 2012, dated 2017)
In brackets after ≈: the same amount, converted by molar mass. Marks after values point to notes of the source that are not given here.

How the values were obtained:
S. aureus HMGR = S. aureus HMGR (Staphylococcus aureus, UniProt Q9FD86); assay: biochemical
E. faecalis II-HMGR = E. faecalis II-HMGR (Enterococcus faecalis, UniProt Q9FD70); assay: biochemical
[1] = system: C. elegans infected with MRSA; assay: Treatment of C. elegans infected with MRSA; conditions: MRSA-infected worms, 100 μM; for Log CFU/worm: 16 hours treatment; for Log Reduction: versus DMSO control
[2] = system: vancomycin resistant Enterococcus faecalis (VRE) ATCC 51299; assay: MIC/MBC micro dilution against VRE; conditions: VRE ATCC 51299, MHB, 20 hours
J774A.1 cells = assay: In vitro cell viability/cytotoxicity MTS assay; format: cell-based; conditions: 100 μM, 24 hours
Procedure: Cytotoxicity of the compounds was evaluated using J774A.1 cells (mitochondrial function) in the CellTiter 96® AQueous Non-Radioactive Cell Proliferation Assay (Promega). […] Formazan is measured by measuring the absorbance at 490 nm. Briefly, ˜2×10^4 J774A.1 cells suspended in 200 μL DMEM supplemented with 10% fetal bovine serum (FBS), L-glutamine, NaHCO3, pyridoxine-HCl, and […] glucose and preserved with 1% penicillin-streptomycin solution were seeded in 96-well plates and incubated at 37° C. in a 5% CO2 atmosphere. The cells were cultured for 24 hours (60% confluency) before the assays. The J774A.1 cells were further incubated with 100 μM of compounds (2f, […], 2j, and 2e) and DMSO as a control for 24 hours. The culture media was discarded, and the cells in each well were washed with PBS and re-suspended with 100 μL of cell culture media prior to addition of the assay reagent. The plates were incubated for 4 hours at 37° C. in a humidified 5% CO2 atmosphere. The absorbance at 490 nm was recorded using a 96-well Elisa plate reader (SoftMax ProInc., USA). Results were expressed as the percentage mean absorbance by cells upon incubation with various treatments (compounds 2f, 2j, 2i, and 2e) with respect to incubation with DMSO. The results are expressed as means from six measurements±SD.

[3] = system: Staphylococcus aureus ATCC 6538 adherent organisms (biofilm); assay: MIC/MBC in adherent-cell biofilm of S. aureus ATCC 6538; format: cell-based; conditions: for Adherent organisms (biofilm) MIC^b: S. aureus ATCC 6538, 20 h; for Adherent organisms (biofilm) MBC^b: S. aureus ATCC 6538, regrowth 20 h in antibiotic-free MHB
Procedure: An adherent biofilm for susceptibility testing was formed using a clinical isolate of Staphylococcus aureus (ATCC 6538). S. aureus biofilms were prepared in a tissue culture non-treated polystyrene 96-well plate (Corning) and washed with phosphate-buffered saline (PBS) to remove unbound bacteria. Subsequently, serial twofold dilutions of the compounds in MHB were added to wells containing adherent organisms. The polystyrene plates were incubated for 20 h at 37° C. The MIC was taken as the lowest drug concentration at which observable growth was inhibited.

[4] = system: methicillin-resistant Staphylococcus aureus (MRSA) ATCC 43300; assay: MIC/MBC micro dilution against MRSA; conditions: for MRSA MBC: MRSA ATCC 43300, MHB, 20 hours, Table 2; for MBC / MIC: Staphylococcus aureus
[5] = system: Candida albicans ATCC 18804; assay: MIC/MFC against Candida albicans in YM broth; format: cell-based; conditions: yeast medium broth
Procedure: Antifungal activities of 22 HMG-CoA Reductase inhibitors were initially tested at 100 μM concentration against Candida albicans ATCC 18804.

[6] = system: vancomycin intermediate Staphylococcus aureus (VISA) NRS1; assay: MIC/MBC against clinical VISA isolate
Bacillus cereus = assay: Screen and MIC/MBC against Bacillus cereus; format: cell-based; conditions: for inhibition of growth in initial screen: 100 μM; for Bacillus cereus MBC / Bacillus cereus MIC: MHB
[7] = system: Bacillus anthracis Sterne strain (34F2); format: cell-based; conditions: for inhibition of growth in initial screen: 100 μM; for Bacillus anthracis MBC / Bacillus anthracis MIC: MHB
MRSA = assay: Time-kill assay against MRSA in MHB
Bacillus subtilis = assay: Screen and MIC/MBC against Bacillus subtilis; format: cell-based; conditions: for inhibition of growth in initial screen: 100 μM; for Bacillus subtilis MBC / Bacillus subtilis MIC: MHB
[8] = system: Staphylococcus aureus ATCC 6538 planktonic organisms (not in biofilm); assay: MIC/MBC against planktonic S. aureus ATCC 6538; format: cell-based
Listeria monocytogenes = assay: Screen and MIC/MBC against Listeria monocytogenes; format: cell-based; conditions: for inhibition of growth in initial screen: 100 μM; for Listeria monocytogenes MBC / Listeria monocytogenes MIC: MHB
[9] = system: C. elegans infected with VRE; assay: Treatment of C. elegans infected with VRE; conditions: VRE-infected worms, 100 μM
[10] = system: clinical methicillin-resistant Staphylococcus aureus (MRSA) isolates; assay: MIC/MBC against clinical MRSA isolates
Brucella abortus = format: cell-based; conditions: for inhibition of growth in initial screen: 100 μM; for Brucella abortus (single value, head does not say MIC or MBC): MHB

Sequence of S. aureus HMGR (Q9FD86 entry or part of it): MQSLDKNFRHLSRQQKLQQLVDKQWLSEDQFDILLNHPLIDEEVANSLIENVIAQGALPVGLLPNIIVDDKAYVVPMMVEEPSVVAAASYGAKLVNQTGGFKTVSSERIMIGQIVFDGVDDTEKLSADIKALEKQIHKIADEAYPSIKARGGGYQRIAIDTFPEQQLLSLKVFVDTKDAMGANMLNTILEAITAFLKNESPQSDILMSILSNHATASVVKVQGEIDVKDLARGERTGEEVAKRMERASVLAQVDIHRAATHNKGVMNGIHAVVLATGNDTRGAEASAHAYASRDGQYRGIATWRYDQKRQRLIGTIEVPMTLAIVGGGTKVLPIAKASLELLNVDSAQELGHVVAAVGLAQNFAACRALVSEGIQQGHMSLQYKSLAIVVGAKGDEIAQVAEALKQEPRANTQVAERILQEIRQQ

CCCCc1ccc(NS(=O)(=O)c2ccc(O)c(C(=O)O)c2)cc1 [Compound 1, 5-[N-(4-butylphenyl)sulfamoyl]-2-hydroxybenzoic acid]
IC50 (S. aureus HMGR): 91 ± 5 µM | IC50 (E. faecalis II-HMGR): 5 µM

CCCCCCCCCCc1ccc(NS(=O)(=O)c2ccc(O)c(C(=O)O)c2)cc1 [Compound 2f, 5-[N-(4-decylphenyl)sulfamoyl]-2-hydroxybenzoic acid]
Log CFU/worm [1]: 2.33 ± 0.09 Log CFU/worm | Log Reduction [1]: 2.71* | VRE MBC [2]: 32/32 | percentage mean absorbance at 490 nm (MTS) versus DMSO (J774A.1 cells): no significant differences in percentage mean absorption | IC50 (S. aureus HMGR): 7.2 µM | Adherent organisms (biofilm) MIC^b [3]: 64 µM | Adherent organisms (biofilm) MBC^b [3]: 128 µM | MRSA MBC [4]: 16/16 | MBC [4]: 16 µM (≈ 6.94 µg/mL) | MIC [4]: 16 µM (≈ 6.94 µg/mL) | Candida albicans MFC [5]: 16/16 | Candida albicans MIC [5]: 16/16 | MBC [6]: 4 µM (≈ 1.73 µg/mL) | MIC [6]: 4 µM (≈ 1.73 µg/mL) | inhibition of growth in initial screen (Bacillus cereus): showed inhibition of growth | Bacillus cereus MBC (Bacillus cereus): 16/16 | Bacillus cereus MIC (Bacillus cereus): 16/16 | inhibition of growth in initial screen [7]: showed inhibition of growth | Bacillus anthracis MBC [7]: 16/16 | Bacillus anthracis MIC [7]: 16/16 | time-kill of MRSA cells (MRSA; 1× MIC or 2× MIC): four hours are required to eliminate bacteria completely | time-kill of MRSA cells (MRSA; 3× MIC): complete elimination of MRSA cells within a two-hour window | inhibition of growth in initial screen (Bacillus subtilis): showed inhibition of growth | Bacillus subtilis MBC (Bacillus subtilis): 16/16 | Bacillus subtilis MIC (Bacillus subtilis): 16/16 | Planktonic organisms (not in biofilm) MBC [8]: 16 µM | Planktonic organisms (not in biofilm) MIC [8]: 16 µM | inhibition of growth in initial screen (Listeria monocytogenes): showed inhibition of growth | Listeria monocytogenes MBC (Listeria monocytogenes): > 128 µM | Listeria monocytogenes MIC (Listeria monocytogenes): 64 µM | Log CFU/worm ([9]; 16 hours treatment): 0.70 ± 0.37 Log CFU/worm | Log Reduction ([9]; versus DMSO control): 4.20* | MBC ([10]; MRSA / NRS123 / USA400): 16 µM (≈ 6.94 µg/mL) | MIC ([10]; MRSA / NRS123 / USA400): 4 µM (≈ 1.73 µg/mL) | MBC ([10]; MRSA / NRS382 / USA100): 8 µM (≈ 3.47 µg/mL) | MIC ([10]; MRSA / NRS382 / USA100): 8 µM (≈ 3.47 µg/mL) | MBC ([10]; MRSA / NRS383 / USA200): 4 µM (≈ 1.73 µg/mL) | MIC ([10]; MRSA / NRS383 / USA200): 4 µM (≈ 1.73 µg/mL) | MBC ([10]; MRSA / NRS384 / USA300): 8 µM (≈ 3.47 µg/mL) | MIC ([10]; MRSA / NRS384 / USA300): 4 µM (≈ 1.73 µg/mL) | MBC ([10]; MRSA / NRS385 / USA500): 8 µM (≈ 3.47 µg/mL) | MIC ([10]; MRSA / NRS385 / USA500): 4 µM (≈ 1.73 µg/mL) | MBC ([10]; MRSA / NRS386 / USA700): 8 µM (≈ 3.47 µg/mL) | MIC ([10]; MRSA / NRS386 / USA700): 4 µM (≈ 1.73 µg/mL) | MBC ([10]; MRSA / NRS387 / USA800): 8 µM (≈ 3.47 µg/mL) | MIC ([10]; MRSA / NRS387 / USA800): 4 µM (≈ 1.73 µg/mL) | MBC ([10]; MRSA / NRS483): 8 µM (≈ 3.47 µg/mL) | MIC ([10]; MRSA / NRS483): 4 µM (≈ 1.73 µg/mL) | MBC ([10]; MRSA / NRS484): 8 µM (≈ 3.47 µg/mL) | MIC ([10]; MRSA / NRS484): 4 µM (≈ 1.73 µg/mL) | inhibition of growth in initial screen (Brucella abortus): showed inhibition of growth | Brucella abortus (single value, head does not say MIC or MBC) (Brucella abortus): 128 µM

CC(C)CCCCc1ccc(NS(=O)(=O)c2ccc(O)c(C(=O)O)c2)cc1 [Compound 2j, 2-hydroxy-5-[N-(4-(5-methylhexyl)phenyl)sulfamoyl]benzoic acid]
VRE MBC [2]: 128/128 | percentage mean absorbance at 490 nm (MTS) versus DMSO (J774A.1 cells): no significant differences in percentage mean absorption | IC50 (S. aureus HMGR): 22 µM | Adherent organisms (biofilm) MIC^b [3]: 128 µM | Adherent organisms (biofilm) MBC^b [3]: 128 µM | MRSA MBC [4]: 64/64 | MBC [4]: 64 µM (≈ 25.1 µg/mL) | MIC [4]: 64 µM (≈ 25.1 µg/mL) | Candida albicans MFC [5]: 128/>128 | Candida albicans MIC [5]: 128/>128 | MBC [6]: 16 µM (≈ 6.26 µg/mL) | MIC [6]: 16 µM (≈ 6.26 µg/mL) | inhibition of growth in initial screen (Bacillus cereus): showed inhibition of growth | Bacillus cereus MBC (Bacillus cereus): 64/64 | Bacillus cereus MIC (Bacillus cereus): 64/64 | inhibition of growth in initial screen [7]: showed inhibition of growth | Bacillus anthracis MBC [7]: 32/32 | Bacillus anthracis MIC [7]: 32/32 | inhibition of growth in initial screen (Bacillus subtilis): showed inhibition of growth | Bacillus subtilis MBC (Bacillus subtilis): 32/32 | Bacillus subtilis MIC (Bacillus subtilis): 32/32 | Planktonic organisms (not in biofilm) MBC [8]: 64 µM | Planktonic organisms (not in biofilm) MIC [8]: 64 µM | inhibition of growth in initial screen (Listeria monocytogenes): showed inhibition of growth | Listeria monocytogenes MBC (Listeria monocytogenes): 128/>128 | Listeria monocytogenes MIC (Listeria monocytogenes): 128/>128 | MBC ([10]; MRSA / NRS123 / USA400): 32 µM (≈ 12.5 µg/mL) | MIC ([10]; MRSA / NRS123 / USA400): 16 µM (≈ 6.26 µg/mL) | MBC ([10]; MRSA / NRS382 / USA100): 32 µM (≈ 12.5 µg/mL) | MIC ([10]; MRSA / NRS382 / USA100): 16 µM (≈ 6.26 µg/mL) | MBC ([10]; MRSA / NRS383 / USA200): 32 µM (≈ 12.5 µg/mL) | MIC ([10]; MRSA / NRS383 / USA200): 16 µM (≈ 6.26 µg/mL) | MBC ([10]; MRSA / NRS384 / USA300): 32 µM (≈ 12.5 µg/mL) | MIC ([10]; MRSA / NRS384 / USA300): 16 µM (≈ 6.26 µg/mL) | MBC ([10]; MRSA / NRS385 / USA500): 16 µM (≈ 6.26 µg/mL) | MIC ([10]; MRSA / NRS385 / USA500): 16 µM (≈ 6.26 µg/mL) | MBC ([10]; MRSA / NRS386 / USA700): 16 µM (≈ 6.26 µg/mL) | MIC ([10]; MRSA / NRS386 / USA700): 16 µM (≈ 6.26 µg/mL) | MBC ([10]; MRSA / NRS387 / USA800): 32 µM (≈ 12.5 µg/mL) | MIC ([10]; MRSA / NRS387 / USA800): 16 µM (≈ 6.26 µg/mL) | MBC ([10]; MRSA / NRS483): 32 µM (≈ 12.5 µg/mL) | MIC ([10]; MRSA / NRS483): 16 µM (≈ 6.26 µg/mL) | MBC ([10]; MRSA / NRS484): 32 µM (≈ 12.5 µg/mL) | MIC ([10]; MRSA / NRS484): 16 µM (≈ 6.26 µg/mL) | inhibition of growth in initial screen (Brucella abortus): showed inhibition of growth | Brucella abortus (single value, head does not say MIC or MBC) (Brucella abortus): 64 µM

CN[C@H](CC(C)C)C(=O)N[C@H]1C(=O)N[C@@H](CC(N)=O)C(=O)N[C@H]2C(=O)N[C@H]3C(=O)N[C@H](C(=O)N[C@H](C(=O)O)c4cc(O)cc(O)c4-c4cc3ccc4O)[C@H](O)c3ccc(c(Cl)c3)Oc3cc2cc(c3O[C@@H]2O[C@H](CO)[C@@H](O)[C@H](O)[C@H]2O[C@H]2C[C@](C)(N)[C@H](O)[C@H](C)O2)Oc2ccc(cc2Cl)[C@H]1O [Vancomycin, vancomycin, reference compound]
Log CFU/worm [1]: 3.26 ± 0.20 Log CFU/worm | Log Reduction [1]: 1.78* | Adherent organisms (biofilm) MIC^b [3]: 2 µM | Adherent organisms (biofilm) MBC^b [3]: 8 µM | time-kill of MRSA cells (MRSA; 3× MIC): failed to reduce the number of CFU by 3-log10 within a 10 hour window
